Data reported in patent US20210093626A1 (priority 2018, published 2021).

Tests used:
[1] = system: PrP^Sc in GT1 cells chronically infected with RML prion (ScGT1); type: cell-based, mouse; conditions: drug 20 μM, 4 days, vs vehicle control, densitometry normalized to β-actin
[2] = system: PrP^Sc in N2a cells chronically infected with RML prion strain (ScN2a); type: cell-based, mouse
[3] = system: PrP^Sc in GT1 cells chronically infected with 22L prion strain (ScGT1 22L); type: cell-based, mouse; conditions: ScGT1 cells infected with 22L prion strain, drug 20 μM, 4 days, vs vehicle control
[4] = system: N2a, ScN2a, GT1, ScGT1 cells

With `Nc1c(C(=O)c2ccc[nH]2)cnn1-c1ccc(F)cc1` [Compound G] the “reduction of PrP^Sc accumulation/levels” value [1] was “about 50%”.
`Nc1c(C(=O)C2CCNCC2)cnn1-c1ccc(OC(F)(F)F)cc1` [Compound 5, [5-Amino-1-(4-trifluoromethoxy-phenyl)-1H-pyrazol-4-yl]-piperidin-4-yl-methanone] was tested, and the “reduction in PrP^Sc levels” value ([2]; RML-infected ScN2a cells, drug 20 μM, 4 days, vs vehicle control) was 60%, the “PrP^Sc reduction with compound dissolved in different drug vehicles” value ([2]; ScN2a cells, vehicles PBS, H2O, NaCl and DMSO) was “able to reduce PrP^Sc in all drug vehicles tested” and the “reduction of PrP^Sc levels” value [3] was 35%. For the same compound, the “reduction of PrP^Sc accumulation/levels” value [1] was “about 60%”.
`Nc1c(C(=O)c2c[nH]c3ccccc23)cnn1-c1ccccc1` [Compound 3, (5-Amino-1-phenyl-1H-pyrazol-4-yl)-(1H-indol-3-yl)-methanone] was tested, and the citotoxicity assessment [4] was “discarded”.
